In publication PMC6033213, “Structurally simple synthetic 1, 4-disubstituted piperidines with high selectivity for resistant Plasmodium falciparum” (BMC Pharmacology & Toxicology, 2018):
Values after ≈ are worked out from the molar mass of the structure shown. Where two headings read alike, the source gives them in different places.

What was measured:
[1] = system: P. falciparum 3D7; assay: Secondary screen: parasite growth inhibition by parasite lactate dehydrogenase (pLDH) assay, 3D7; format: cell-based, Plasmodium falciparum; set-up: key to Antiplasmodial activity class on 3D7: active, IC50 < 5 μg/mL; moderately active: 5 μg/mL ≤ IC50 ≤ 10 μg/mL; weakly active: IC50 ≥ 10 μg/mL
Text: (§1) Two Plasmodium falciparum parasite strains were obtained from MR4 (Manassas, Virginia, USA) and stored in liquid nitrogen. The 3D7 (MRA-102) strain is chloroquine- sensitive while Dd2 is a multidrug resistant clone of the W2 strain with resistance to chloroquine, quinine, mefloquine, sulfadoxine and pyrimethamine. Parasite stocks were thawed, grown and maintained in continuous culture by the candle jar technique with some modifications. The culture consisted of 4% hematocrit suspension of human O+ erythrocytes in RPMI-1640 medium (10.43 g/L supplemented with 0.01 mg/mL gentamycin, 25 mM Hepes buffer, 25 mM NaHCO3) and 5 g Albumax II. All culture reagents were obtained from Sigma-Aldrich Inc. (Germany) except for Albumax II (Gibco; Invitrogen, USA). Cultures were incubated at 37 °C in 5% CO2.
(§2) After incubation the plate was frozen at − 20 °C for the parasite lactate dehydrogenase (pLDH) assay.
(§3) The reagent preparation and assay were done as described. The plates were subjected to 3 freeze-thaw cycles to haemolyze the red blood cells. One hundred microlitre (100 μL) of Malstat reagent was added to each required well of a fresh microtitre plate followed by 20 μL of culture. Then 25 μL of nitroblue tetrazolium/phenazine ethosulfate (NBT/PES) solution was added initiating the reaction. The plates were then incubated for an hour in the dark and optical density (OD) measured at 650 nm (Emax-Molecular Devices Corporation, California, USA).
(§4) For the parasite lactate dehydrogenase assay, the background OD of blank wells containing non parasitized red blood cells was subtracted from values of all test wells. OD values from control wells void of test compound represented the maximum pLDH activity. The OD values obtained were used to determine the IC50, and IC90 values using the software IC Method IC Estimator V1.2 [18], an online calculator of IC values. Each assay was done twice in duplicates and the 4 IC50 or CC50 values obtained were pooled together and expressed as mean IC ± S.D.

[2] = system: LLC-MK2 monkey kidney epithelial cells; assay: Cytotoxicity test, MTT/formazan assay; format: cell-based; conditions: for SI on 3D7: CC50 on LLC-MK2 cells/IC50 on P. falciparum 3D7; for SI on Dd2: CC50 on LLC-MK2 cells/IC50 on P. falciparum Dd2; for Mean SI: mean of the Selectivity Indices of the 3D7 and Dd2 parasite strains
Method: (§5) This was done on monkey kidney epithelial cells, LLC-MK2, (ATCC, USA) as described except for use of same culture medium and conditions for P falciparum above. The cells, 10,000 in 100 μL medium per well, were cultured for 24 h to become confluent and attached to the bottom of the well and the medium replaced with 100 μL of fresh medium. […] A negative control without test substance was included. The plates were incubated for 72 h at 37 °C in 5% CO2 and cell viability were determined using microscopy to observe dead cells which appeared dark and deformed. This was followed by the MTT/formazan assay as described above with slight modification. The CC50 values (50% cytotoxic concentration) for each compound was obtained using Microsoft excel 2007. The selectivity index (SI) was calculated using the formula:3 SI=CC50onLLC‐MK2cells/IC50onP.falciparum
as §4

[3] = Cytotoxicity test, MTT/formazan assay; format: cell-based, monkey; conditions: monkey, LLC-MK2 monkey kidney epithelial cells; LLC-MK2 cells, 72 h, MTT/formazan
Method: as §5, §4

[4] = system: P. falciparum Dd2; assay: Secondary screen: parasite growth inhibition by parasite lactate dehydrogenase (pLDH) assay, Dd2; format: cell-based, Plasmodium falciparum; set-up: key to Antiplasmodial activity class on Dd2: active, IC50 < 5 μg/mL; moderately active: 5 μg/mL ≤ IC50 ≤ 10 μg/mL; weakly active: IC50 ≥ 10 μg/mL
Text: as §1, §2, §3, §4

[5] = system: P. falciparum Dd2; assay: Primary screen: in vitro parasite growth inhibition at a single concentration, fluorescence microscopy with acridine orange; format: cell-based, Plasmodium falciparum; conditions: 40 μg/mL, 48 h, Dd2 chloroquine-resistant strain; for inhibition at 40 µg/mL: Plasmodium falciparum
Text: as §1
A primary screen for antiplasmodial activity at a single concentration was performed against Dd2 as described with some modifications, to identify active compounds. Stock solutions of compound (1 mg/mL) was initially dissolved in dimethylsulfoxide (DMSO), then gentamycin-free incomplete medium (without Albumax II) added giving 2% final DMSO; the solutions were sterilized and stored. The positive control solutions (artemether and quinine at 5 μg/mL) were prepared similarly. The compounds were tested at a final concentration of 40 μg/mL in duplicate in a 96 well microtitre plate (100 μL per well), followed by 100 μL of 1% parasitized blood. Positive and negative controls (no drug) were included. The plate was incubated under the same culture conditions as above for 48 h and antiplasmodial activity determined by fluorescence microscopy (Leitz Wetzlar, Germany) with acridine orange stain at × 40 magnification under oil immersion. The number of infected erythrocytes (Ei) was counted in 20 monolayer fields (approximately 1500 cells per field) and the percentage parasitaemia was calculated using the formula:1 %parasitaemia=∑Ei/30,000×100
The percentage inhibition per concentration was then obtained using the formula below:2 percentage%inhibition=%parasitaemia of control well‐%parasitaemia of test well/%parasitaemia of control well×100

[6] = Plasmodium falciparum, 3D7 chloroquine-sensitive strain, pLDH assay, mean ± S.D., read-out: IC50
[7] = Plasmodium falciparum, 3D7 chloroquine-sensitive strain, pLDH assay, mean ± S.D., read-out: IC90
[8] = Plasmodium falciparum, Dd2 chloroquine-resistant strain, pLDH assay, mean ± S.D., read-out: IC50
[9] = Plasmodium falciparum, Dd2 chloroquine-resistant strain, pLDH assay, mean ± S.D., read-out: IC90
[10] = Plasmodium falciparum, 3D7 strain, class by IC50, read-out: Antiplasmodial activity class on 3D7
[11] = Plasmodium falciparum, Dd2 strain, class by IC50, read-out: Antiplasmodial activity class on Dd2
[12] = 3D7 chloroquine-sensitive strain, pLDH assay, mean ± S.D.
[13] = Dd2 chloroquine-resistant strain, pLDH assay, mean ± S.D.

| Compound | Antiplasmodial activity class on 3D7 ([1]; 3D7 strain, class by IC50) | IC50 [1, 6] [µg/mL] | IC90 [1, 7] [µg/mL] | SI on 3D7 [2] | SI on Dd2 [2] | Mean SI [2] | CC50 at 72 h [3] [µg/mL] | Antiplasmodial activity class on Dd2 ([4]; Dd2 strain, class by IC50) | IC50 [4, 8] [µg/mL] | IC90 [4, 9] [µg/mL] | inhibition at 40 µg/mL [5] [%] | IC50 [1, 10] [µg/mL] | IC50 [4, 11] [µg/mL] | IC50 [1, 12] [µg/mL] | IC90 [1, 12] [µg/mL] | IC50 [4, 13] [µg/mL] | IC90 [4, 13] [µg/mL] | Inhibition (%) of P. falciparum Dd2 growth [5] [%] |
| --- | --- | --- | --- | --- | --- | --- | --- | --- | --- | --- | --- | --- | --- | --- | --- | --- | --- | --- |
| OC(c1ccc(F)cc1)C1CCN(Cc2ccc(Cl)c(Cl)c2)CC1 (centres unmarked) [Compound 8, [1-(3,4-dichlorobenzyl)piperidin-4-yl] [4-fluorophenyl] methanol] | active | 4.43 ± 0.32 (≈ 12 µM) | 13.9 ± 1.25 (≈ 37.7 µM) | 21.14 | 71.67 | 46.41 ± 35.7 | 93.8 (≈ 255 µM) | active | 1.3 (≈ 3.53 µM) | 17.3 ± 3.27 (≈ 47.1 µM) | 81.7 |  |  |  |  |  |  |  |
| Cc1ccc(CN2CCC(C(=O)c3ccc(F)cc3)CC2)cc1 [Compound 6, [1-(4-methylbenzyl)piperidin-4-yl] [4-fluorophenyl] methanone] |  | 13.6 ± 0.31 (≈ 43.8 µM) | 19.1 ± 2.46 (≈ 61.3 µM) |  |  |  |  |  | 12.8 ± 3.21 (≈ 40.9 µM) | 37.1 ± 0.53 (≈ 119 µM) | 59.1 | ≥ 10 | ≥ 10 |  |  |  |  |  |
| O=C(c1ccc(F)cc1)C1CCN(Cc2ccc(Cl)cc2)CC1 [Compound 3, [1-(4-chlorobenzyl)piperidin-4-yl] [4-fluorophenyl] methanone] | active | 3.21 ± 0.21 (≈ 9.67 µM) | 17.9 ± 2.39 (≈ 53.9 µM) |  |  | 17.31 ± 3.0 | 62.5 (≈ 188 µM) | active | 4.12 ± 1.28 (≈ 12.4 µM) | 32.4 ± 0.67 (≈ 97.6 µM) | 56.6 |  |  |  |  |  |  |  |
| N-{[1-(4-bromobenzyl) piperidin-4-yl] [4-fluorophenyl] methyl}-3-bromobenzylamine [Compound 14] | active |  |  | 163 |  |  |  | active |  |  |  |  |  | 2.28 ± 0.64 | 11.31 ± 3.50 | 2.57 ± 1.64 | 16.21 ± 0.35 | 86.0 |
| C=C[C@H]1C[N@@]2CC[C@H]1C[C@H]2[C@H](O)c1ccnc2ccc(OC)cc12 [QN, quinine, reference compound] |  | 0.171 (≈ 0.527 µM) |  |  |  |  |  |  | 0.127 (≈ 0.391 µM) |  |  |  |  |  |  |  |  |  |
| Cc1ccc(CN2CCC(C(O)c3ccc(F)cc3)CC2)cc1 (centres unmarked) [Compound 12, [1-(4-methylbenzyl)piperidin-4-yl] [4-fluorophenyl] methanol] | active | 3.37 ± 0.82 (≈ 10.8 µM) | 15.7 (≈ 50.2 µM) | 55.52 | 67.39 | 61.46 ± 8.39 | 188 (≈ 598 µM) | active | 2.78 ± 0.09 (≈ 8.87 µM) | 10.2 ± 3.31 (≈ 32.5 µM) | 83.1 |  |  |  |  |  |  |  |
| O=C(c1ccc(F)cc1)C1CCN(Cc2ccc(F)cc2)CC1 [Compound 1, [1-(4-fluorobenzyl)piperidin-4-yl] [4-fluorophenyl] methanone] |  | 8.45 ± 2.11 (≈ 26.8 µM) | 17.9 ± 0.18 (≈ 56.6 µM) | 22.17 | 32.91 | 27.54 ± 7.59 | 188 (≈ 595 µM) |  | 5.69 ± 2.38 (≈ 18 µM) | 27.6 ± 0.78 (≈ 87.5 µM) | 83.2 | 5 to 10 (≈ 15.9 to 31.7 µM) | 5 to 10 (≈ 15.9 to 31.7 µM) |  |  |  |  |  |
